From PubChem BioAssay AID206 (DTP/NCI, 2004)
Values joined by “and” are separate entries in the source; they are usually repeats but may differ in a detail not shown here. Identical values can stand only once. Results filed as inconclusive are left out.

System: nude mice, HT29 intrarenal xenograft, tumor weight T/C
Assay: NCI In Vivo Anticancer Drug Screen. Data for tumor model HT29;CX-1 Human Adenocarcinoma (MER+) (intrarenal inoculation) in NU/NU Swiss (nude) mice
Settings: endpoint: mean tumor weight change, higher = larger tumour
How it was run: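 Endpoint measured as tumor size or survival; ratio reported is treated group over vehicle controls.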

[1] = dose: 600.0 mg/kg/injection, schedule: Q04DX004 (sc), vehicle: Klucel (hydroxypropylcellulose) (HPC)
[2] = dose: 1200.0 mg/kg/injection, schedule: Q04DX004 (sc), vehicle: Klucel (hydroxypropylcellulose) (HPC)
[3] = dose: 2400.0 mg/kg/injection, schedule: Q04DX004 (sc), vehicle: Klucel (hydroxypropylcellulose) (HPC)
[4] = dose: 25.0 mg/kg/injection, schedule: Q04DX004 (sc), vehicle: saline
[5] = dose: 300.0 mg/kg/injection, schedule: Q04DX004 (sc), vehicle: saline with Tween-80
[6] = dose: 150.0 mg/kg/injection, schedule: Q04DX004 (sc), vehicle: Klucel (hydroxypropylcellulose) (HPC)
[7] = dose: 300.0 mg/kg/injection, schedule: Q04DX004 (sc), vehicle: Klucel (hydroxypropylcellulose) (HPC)
[8] = dose: 150.0 mg/kg/injection, schedule: Q04DX004 (sc), vehicle: saline with Tween-80

## COc1ccc2cc1Oc1ccc(cc1)C[C@H]1c3cc(c(OC)cc3CCN1C)Oc1c(OC)c(OC)cc3c1[C@H](C2)N(C)CC3
dose: 100.0 mg/kg/injection, schedule: Q01DX010 (sc), vehicle: saline with Tween-80
  T/C: 102 % of control
dose: 200.0 mg/kg/injection, schedule: Q01DX010 (sc), vehicle: saline with Tween-80
  T/C: 33 % of control
dose: 400.0 mg/kg/injection, schedule: Q01DX010 (sc), vehicle: saline with Tween-80
  T/C: 28 % of control
dose: 800.0 mg/kg/injection, schedule: Q01DX010 (sc), vehicle: saline with Tween-80
  T/C: 27 % of control

## Oc1cc2c3c(c1)c1cc4c(cc1c[n+]3CC2)OCO4
dose: 100.0 mg/kg/injection, schedule: Q04DX004 (sc), vehicle: water
  T/C: 53 % of control
dose: 200.0 mg/kg/injection, schedule: Q04DX004 (sc), vehicle: water
  T/C: 61 % of control
dose: 400.0 mg/kg/injection, schedule: Q04DX004 (sc), vehicle: water
  T/C: 73 % of control

## C#C[C@]1(O)CC[C@H]2[C@@H]3CCc4cc(O)ccc4[C@H]3CC[C@@]21C
[1]
  T/C: 91 % of control
[2]
  T/C: 83 % of control
[3]
  T/C: 80 % of control

## COc1cccc2c1C(=O)c1c(O)c3c(c(O)c1C2=O)C[C@@](O)(/C(C)=N/NC(=O)c1ccccc1)C[C@@H]3OC1CC(N)C(O)C(C)O1 (some centres not stated)
dose: 18.75 mg/kg/injection, schedule: Q04DX004 (sc), vehicle: water
  T/C: 117 % of control
dose: 37.5 mg/kg/injection, schedule: Q04DX004 (sc), vehicle: water
  T/C: 123 % of control

## CC(=O)C1=C(O)C2(O)C(=O)c3c(c(C)c4ccc(C)c(O)c4c3O)CC2C(N)C1=O (configuration not stated)
[4]
  T/C: 153 % of control
dose: 50.0 mg/kg/injection, schedule: Q04DX004 (sc), vehicle: saline
  T/C: 173 % of control
dose: 100.0 mg/kg/injection, schedule: Q04DX004 (sc), vehicle: saline
  T/C: 102 % of control
dose: 200.0 mg/kg/injection, schedule: Q04DX004 (sc), vehicle: saline
  T/C: 109 % of control

## NNC(=S)N/N=C/c1ccccn1
dose: 15.0 mg/kg/injection, schedule: Q04DX004 (sc), vehicle: saline with Tween-80
  T/C: 100 % of control
dose: 30.0 mg/kg/injection, schedule: Q04DX004 (sc), vehicle: saline with Tween-80
  T/C: 76 % of control
dose: 60.0 mg/kg/injection, schedule: Q04DX004 (sc), vehicle: saline with Tween-80
  T/C: 86 % of control

## CCCCC1CCCCCCc2[nH]c(/C=C3\N=C(c4ccc[nH]4)C=C3OC)cc21 (configuration not stated)
dose: 16.0 mg/kg/injection, schedule: Q04DX004 (sc), vehicle: saline with Tween-80
  T/C: 200 % of control

## COc1ccc(S(=O)(=O)N=N/C=C2\C=CC=CN2O)cc1OC
dose: 18.75 mg/kg/injection, schedule: Q04DX004 (sc), vehicle: saline with Tween-80
  T/C: 61 % of control
dose: 37.5 mg/kg/injection, schedule: Q04DX004 (sc), vehicle: saline with Tween-80
  T/C: 54 % of control
[5]
  T/C: 55 % of control

## CC[C@](O)(C(=O)O)c1cc2n(c(=O)c1CO)Cc1cc3ccccc3nc1-2
dose: 31.25 mg/kg/injection, schedule: Q04DX004 (sc), vehicle: saline
  T/C: 7 % of control
dose: 62.5 mg/kg/injection, schedule: Q04DX004 (sc), vehicle: saline
  T/C: -10 % of control
dose: 125.0 mg/kg/injection, schedule: Q04DX004 (sc), vehicle: saline
  T/C: -46 % of control

## [Cl][Sn]([c]1ccccc1)[c]1ccccc1
dose: 75.0 mg/kg/injection, schedule: Q04DX004 (sc), vehicle: saline
  T/C: 59 % of control
dose: 150.0 mg/kg/injection, schedule: Q04DX004 (sc), vehicle: saline
  T/C: 67 % of control
dose: 300.0 mg/kg/injection, schedule: Q04DX004 (sc), vehicle: saline
  T/C: 63 % of control
dose: 600.0 mg/kg/injection, schedule: Q04DX004 (sc), vehicle: saline
  T/C: 62 % of control

## COc1ccc2ccccc2c1C1NC(=O)c2ccccc2N1 (configuration not stated)
[6]
  T/C: 114 % of control
[7]
  T/C: 115 % of control
[1]
  T/C: 207 % of control
[2]
  T/C: 201 % of control

## Ic1ncnc2c1ncn2C1CCCO1 (configuration not stated)
[7]
  T/C: 55 % of control
[1]
  T/C: 112 % of control
[3]
  T/C: 72 % of control

## ClC1=C(Cl)C(Cl)=C(Cl)C1=Cc1ccccc1
dose: 50.0 mg/kg/injection, schedule: Q04DX004 (sc), vehicle: saline with Tween-80
  T/C: 104 % of control

## Cc1ccc(S(=O)(=O)N/N=C/C(Br)=C(/Br)C(=O)O)cc1
[6]
  T/C: 47 % of control
[7]
  T/C: 55 % of control
[1]
  T/C: 22 % of control

## Cc1nc(N)nc(N)c1-c1ccc(Cl)c(Cl)c1
dose: 0.32 mg/kg/injection, schedule: Q01DX010 (sc), vehicle: saline
  T/C: 46 % of control
dose: 0.63 mg/kg/injection, schedule: Q01DX010 (sc), vehicle: saline
  T/C: 75 % of control
dose: 1.25 mg/kg/injection, schedule: Q01DX010 (sc), vehicle: saline
  T/C: 100 % of control
dose: 2.5 mg/kg/injection, schedule: Q01DX010 (sc), vehicle: saline
  T/C: 68 % of control

## CC1OC(=O)C(C(C)C)NC(=O)C(C(C)C)OC(=O)C(C(C)C)NC(=O)C(C)OC(=O)C(C(C)C)NC(=O)C(C(C)C)OC(=O)C(C(C)C)NC(=O)C(C)OC(=O)C(C(C)C)NC(=O)C(C(C)C)OC(=O)C(C(C)C)NC1=O (configuration not stated)
dose: 5.0 mg/kg/injection, schedule: Q01DX010 (sc), vehicle: saline with Tween-80
  T/C: 87 % of control and 103 % of control

## Cc1c(N)nc(C(CC(N)=O)NCC(N)C(N)=O)nc1C(=O)NC(C(=O)NC(C)C(O)C(C)C(=O)NC(C(=O)NCCc1nc(-c2nc(C(=O)NCCCNCCCc3ccccn3)cs2)cs1)C(C)O)C(OC1OC(CO)C(O)C(O)C1OC1OC(CO)C(O)C(OC(N)=O)C1O)c1cnc[nH]1 (configuration not stated)
dose: 9.0 mg/kg/injection, schedule: Q04DX004 (sc), vehicle: water
  T/C: 164 % of control
dose: 18.0 mg/kg/injection, schedule: Q04DX004 (sc), vehicle: water
  T/C: 120 % of control
dose: 36.0 mg/kg/injection, schedule: Q04DX004 (sc), vehicle: water
  T/C: 90 % of control

## CC(=O)CC(C)=O.CC(=O)CC(C)=O.O=N[O-].O=N[O-].[Co]
dose: 75.0 mg/kg/injection, schedule: Q04DX004 (sc), vehicle: saline with Tween-80
  T/C: 52 % of control
[8]
  T/C: 92 % of control
[5]
  T/C: 48 % of control

## CO[C@H]1Nc2c(ccc(C)c2O)C(=O)N2C=C(/C=C/C(N)=O)C[C@@H]12
dose: 0.5 mg/kg/injection, schedule: Q04DX004 (sc), vehicle: saline + alcohol
  T/C: 98 % of control
dose: 1.0 mg/kg/injection, schedule: Q04DX004 (sc), vehicle: saline + alcohol
  T/C: 54 % of control

## CC/C(=C(/CC)c1ccc(O)cc1)c1ccc(O)cc1
[8]
  T/C: 70 % of control
[5]
  T/C: 69 % of control

## CNc1nc2c(N)ncnc2n1C1OC(CO)C(O)C1O (configuration not stated)
[4]
  T/C: 87 % of control

## O=C1C=C[C@H](O)[C@@]2(CO)O[C@@H]12
dose: 6.25 mg/kg/injection, schedule: Q04DX004 (sc), vehicle: saline with Tween-80
  T/C: 109 % of control
dose: 12.5 mg/kg/injection, schedule: Q04DX004 (sc), vehicle: saline with Tween-80
  T/C: 82 % of control

## COc1cccc2c1C(=O)c1c(O)c3c(c(O)c1C2=O)C[C@@](O)(C(C)=O)C[C@@H]3OC1CC(N(C)C)C(O)C(C)O1 (some centres not stated)
dose: 2.5 mg/kg/injection, schedule: Q04DX004 (sc), vehicle: water
  T/C: 69 % of control
dose: 4.0 mg/kg/injection, schedule: Q01DX010 (sc), vehicle: saline
  T/C: 54 % of control
dose: 5.0 mg/kg/injection, schedule: Q04DX004 (sc), vehicle: water
  T/C: 45 % of control
dose: 10.0 mg/kg/injection, schedule: Q04DX004 (sc), vehicle: water
  T/C: 97 % of control

## C1CN1c1nc(N2CC2)nc(N2CC2)n1
dose: 0.25 mg/kg/injection, schedule: Q01DX010 (sc), vehicle: saline
  T/C: 213 % of control

## CC1=NNC(=O)C1CCO (configuration not stated)
dose: 200.0 mg/kg/injection, schedule: Q04DX004 (sc), vehicle: Klucel (hydroxypropylcellulose) (HPC)
  T/C: 66 % of control
dose: 400.0 mg/kg/injection, schedule: Q04DX004 (sc), vehicle: Klucel (hydroxypropylcellulose) (HPC)
  T/C: 44 % of control
dose: 800.0 mg/kg/injection, schedule: Q04DX004 (sc), vehicle: Klucel (hydroxypropylcellulose) (HPC)
  T/C: 99 % of control
dose: 1600.0 mg/kg/injection, schedule: Q04DX004 (sc), vehicle: Klucel (hydroxypropylcellulose) (HPC)
  T/C: 63 % of control

## COc1ccc2c(NCCCCCCNc3c4ccccc4nc4cc(OC)ccc34)c3ccccc3nc2c1
dose: 0.62 mg/kg/injection, schedule: Q01DX010 (sc), vehicle: lactic acid
  T/C: 87 % of control
dose: 1.25 mg/kg/injection, schedule: Q01DX010 (sc), vehicle: lactic acid
  T/C: 73 % of control
dose: 2.5 mg/kg/injection, schedule: Q01DX010 (sc), vehicle: lactic acid
  T/C: 71 % of control
dose: 30.0 mg/kg/injection, schedule: Q01DX010 (sc), vehicle: lactic acid
  T/C: 71 % of control
